Source: patent US10457710B2, “Antimicrobial peptides, their variants and uses” (priority 2015, dated 2019)
Values after ≈ are worked out from the molar mass of the structure shown. Where a SMILES comes first, the peptide text is derived from it. [ ]: non-standard residue; d: D form.

Key:
Type in all cases: cell-based
C. quillermondiae = assay: MIC, clinical yeast strains; set-up: Minimum inhibitory concentration: unit: μg/ml; details: C. quillermondiae clinical yeast strain 1
Method in brief: (§1)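 Overnight MH agar colonies were suspended in MH broth to 5.0×10^5 cfu/ml, mixed with serial peptide dilutions (0.125–128 μg/ml) and incubated at 37° C for 20 to 24 hours. Yeast MICs were run the same way in potato dextrose broth, and wells were scored visually.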

[1] = tested on: clinical strains of E. cloacae; assay: MIC, microdilution, clinical strains; details: 0.02% BSA, 0.2% acetic acid
Method in brief: (§2)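 MIC = lowest peptide concentration without visual growth after 20–24 h at 37° C. Range 0.125–128 μg/ml, inoculum 5.0×10^5 cfu/ml, microdilution format. Antifungal tests used potato dextrose broth; bacterial tests used MH broth.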

[2] = tested on: clinical strains of Serratia marcescens; assay: MIC, microdilution, clinical strains; details: 0.02% BSA, 0.2% acetic acid
Method in brief: as §2

[3] = tested on: clinical strains of S. aureus; assay: MIC, microdilution, clinical strains; details: 0.02% BSA, 0.2% acetic acid
Method in brief: as §2

[4] = tested on: clinical strains of E. coli; assay: MIC, microdilution, clinical strains
Method in brief: as §2

[5] = tested on: clinical strains of K. pneumoniae; assay: MIC, microdilution, clinical strains; details: 0.02% BSA, 0.2% acetic acid
Method in brief: as §2

[6] = tested on: clinical strains of Proteus mirabilis; assay: MIC, microdilution, clinical strains; details: 0.02% BSA, 0.2% acetic acid
Method in brief: as §2

[7] = tested on: clinical strains of S. pneumoniae; assay: MIC, microdilution, clinical strains; details: 0.02% BSA, 0.2% acetic acid
Method in brief: as §2

[8] = tested on: clinical strains of P. aeruginosa; assay: MIC, microdilution, clinical strains; details: 0.02% BSA, 0.2% acetic acid
Method in brief: as §2

[9] = tested on: clinical strains of A. johnsonii; assay: MIC, microdilution, clinical strains; set-up: unit: μg/ml; details: Acinetobacter johnsonii strain 1, Muller Hinton broth-cation adjusted, 0.02% BSA, 0.2% acetic acid
Method in brief: as §1

[10] = tested on: clinical strains of Acinetobacter baumannii; assay: MIC, microdilution, clinical strains; set-up: unit: μg/ml; details: 0.02% BSA, 0.2% acetic acid
Method in brief: as §2

C. parapsilosis = assay: MIC, clinical yeast strains
Method in brief: as §1

C. glabrata = assay: MIC, clinical yeast strains
Method in brief: as §1

Candida albicans = assay: MIC, clinical yeast strains
Method in brief: as §1

**Q.** How did the Minimum inhibitory concentration (C. quillermondiae) turn out when `CC(C)C[C@@H](NC(=O)[C@H](N)CCCNC(=N)N)C(=O)N[C@H](CCCCN)C(=O)N[C@H](CCCNC(=N)N)C(=O)N[C@H](Cc1c[nH]c2ccccc12)C(=O)N[C@H](CCCNC(=N)N)C(=O)N[C@H](CC(C)C)C(=O)N[C@H](Cc1ccccc1)C(=O)N[C@H](CCCNC(=N)N)C(=O)N[C@H](CCCCN)C(=O)N[C@H](CCCNC(=N)N)C(=O)O` [Chain306D] (H-[dR][dL][dK][dR][dW][dR][dL][dF][dR][dK][dR]-OH) was run?
**A.** The Minimum inhibitory concentration was 4.

**Q.** And the Minimum inhibitory concentration ([1]; Enterobacter cloacae strain 1, Muller Hinton broth-cation adjusted)?
**A.** Its Minimum inhibitory concentration is 64.

**Q.** What about the Minimum inhibitory concentration ([1]; Enterobacter cloacae strain 2, Muller Hinton broth-cation adjusted) of the same compound?
**A.** The Minimum inhibitory concentration was 64.

**Q.** And the Minimum inhibitory concentration ([1]; Enterobacter cloacae strain 3, Muller Hinton broth-cation adjusted)?
**A.** Its Minimum inhibitory concentration is 32.

**Q.** And the Minimum inhibitory concentration ([1]; Enterobacter cloacae strain 4, Muller Hinton broth-cation adjusted)?
**A.** The Minimum inhibitory concentration was 16.

**Q.** What about the Minimum inhibitory concentration ([1]; Enterobacter cloacae strain 5, Muller Hinton broth-cation adjusted) of the same compound?
**A.** The Minimum inhibitory concentration was 16.

**Q.** What about the Minimum inhibitory concentration ([2]; Serratia marcescens strain 1, Muller Hinton broth-cation adjusted) of the same compound?
**A.** The Minimum inhibitory concentration was greater than 128.

**Q.** And the Minimum inhibitory concentration ([2]; Serratia marcescens strain 2, Muller Hinton broth-cation adjusted)?
**A.** Its Minimum inhibitory concentration is greater than 128.

**Q.** What about the Minimum inhibitory concentration ([2]; Serratia marcescens strain 3, Muller Hinton broth-cation adjusted) of the same compound?
**A.** The Minimum inhibitory concentration was greater than 128.

**Q.** And the Minimum inhibitory concentration ([2]; Serratia marcescens strain 4, Muller Hinton broth-cation adjusted)?
**A.** Its Minimum inhibitory concentration is greater than 128.

**Q.** What about the Minimum inhibitory concentration ([2]; Serratia marcescens strain 5, Muller Hinton broth-cation adjusted) of the same compound?
**A.** The Minimum inhibitory concentration was greater than 128.

**Q.** What about the Minimum inhibitory concentration ([3]; Staphylococcus aureus strain 1, Muller Hinton broth-cation adjusted) of the same compound?
**A.** Its Minimum inhibitory concentration is 16.

**Q.** And the Minimum inhibitory concentration ([3]; Staphylococcus aureus strain 2, Muller Hinton broth-cation adjusted)?
**A.** Its Minimum inhibitory concentration is 32.

**Q.** What about the Minimum inhibitory concentration ([3]; Staphylococcus aureus strain 3, Muller Hinton broth-cation adjusted) of the same compound?
**A.** The Minimum inhibitory concentration was 32.

**Q.** And the Minimum inhibitory concentration ([3]; Staphylococcus aureus strain 4, Muller Hinton broth-cation adjusted)?
**A.** Its Minimum inhibitory concentration is 16.

**Q.** And the Minimum inhibitory concentration ([3]; Staphylococcus aureus strain 5, Muller Hinton broth-cation adjusted)?
**A.** The Minimum inhibitory concentration was 8.

**Q.** And the Minimum inhibitory concentration ([4]; Escherichia coli strain 1, microdilution, Muller Hinton broth-cation adjusted, 0.02% BSA, 0.2% acetic acid)?
**A.** Its Minimum inhibitory concentration is 1.

**Q.** What about the Minimum inhibitory concentration ([4]; Escherichia coli strain 2, microdilution, Muller Hinton broth-cation adjusted, 0.02% BSA, 0.2% acetic acid) of the same compound?
**A.** Its Minimum inhibitory concentration is 2.

**Q.** And the Minimum inhibitory concentration ([4]; Escherichia coli strain 3, microdilution, Muller Hinton broth-cation adjusted, 0.02% BSA, 0.2% acetic acid)?
**A.** The Minimum inhibitory concentration was 2.

**Q.** What about the Minimum inhibitory concentration ([4]; Escherichia coli strain 4, microdilution, Muller Hinton broth-cation adjusted, 0.02% BSA, 0.2% acetic acid) of the same compound?
**A.** Its Minimum inhibitory concentration is 2.

**Q.** What about the Minimum inhibitory concentration ([4]; Escherichia coli strain 5, microdilution, Muller Hinton broth-cation adjusted, 0.02% BSA, 0.2% acetic acid) of the same compound?
**A.** Its Minimum inhibitory concentration is 2.

**Q.** What about the Minimum inhibitory concentration ([4]; clinical strains, peptide synthesized as D-form amino acids) of the same compound?
**A.** Its Minimum inhibitory concentration is 1 µg/mL (≈ 0.619 µM).

**Q.** And the Minimum inhibitory concentration ([5]; Klebsiella pneumoniae strain 1, Muller Hinton broth-cation adjusted)?
**A.** Its Minimum inhibitory concentration is 128.

**Q.** And the Minimum inhibitory concentration ([5]; Klebsiella pneumoniae strain 2, Muller Hinton broth-cation adjusted)?
**A.** Its Minimum inhibitory concentration is greater than 128.

**Q.** And the Minimum inhibitory concentration ([5]; Klebsiella pneumoniae strain 3, Muller Hinton broth-cation adjusted)?
**A.** The Minimum inhibitory concentration was greater than 128.

**Q.** And the Minimum inhibitory concentration ([5]; Klebsiella pneumoniae strain 4, Muller Hinton broth-cation adjusted)?
**A.** The Minimum inhibitory concentration was 64.

**Q.** And the Minimum inhibitory concentration ([5]; Klebsiella pneumoniae strain 5, Muller Hinton broth-cation adjusted)?
**A.** Its Minimum inhibitory concentration is 64.

**Q.** What about the Minimum inhibitory concentration ([6]; Proteus mirabilis strain 1, Muller Hinton broth-cation adjusted) of the same compound?
**A.** The Minimum inhibitory concentration was greater than 128.

**Q.** And the Minimum inhibitory concentration ([6]; Proteus mirabilis strain 2, Muller Hinton broth-cation adjusted)?
**A.** Its Minimum inhibitory concentration is greater than 128.

**Q.** What about the Minimum inhibitory concentration ([6]; Proteus mirabilis strain 3, Muller Hinton broth-cation adjusted) of the same compound?
**A.** The Minimum inhibitory concentration was greater than 128.

**Q.** What about the Minimum inhibitory concentration ([6]; Proteus mirabilis strain 4, Muller Hinton broth-cation adjusted) of the same compound?
**A.** The Minimum inhibitory concentration was greater than 128.

**Q.** And the Minimum inhibitory concentration ([6]; Proteus mirabilis strain 5, Muller Hinton broth-cation adjusted)?
**A.** The Minimum inhibitory concentration was greater than 128.

**Q.** And the Minimum inhibitory concentration ([7]; Streptococcus pneumoniae strain 1, Muller Hinton broth-cation adjusted)?
**A.** Its Minimum inhibitory concentration is 64.

**Q.** And the Minimum inhibitory concentration ([7]; Streptococcus pneumoniae strain 2, Muller Hinton broth-cation adjusted)?
**A.** Its Minimum inhibitory concentration is 64.

**Q.** What about the Minimum inhibitory concentration ([7]; Streptococcus pneumoniae strain 3, Muller Hinton broth-cation adjusted) of the same compound?
**A.** The Minimum inhibitory concentration was 64.

**Q.** What about the Minimum inhibitory concentration ([7]; Streptococcus pneumoniae strain 4, Muller Hinton broth-cation adjusted) of the same compound?
**A.** Its Minimum inhibitory concentration is 128.

**Q.** And the Minimum inhibitory concentration ([7]; Streptococcus pneumoniae strain 5, Muller Hinton broth-cation adjusted)?
**A.** The Minimum inhibitory concentration was 64.

**Q.** What about the Minimum inhibitory concentration ([8]; Pseudomonas aeruginosa strain 1, Muller Hinton broth-cation adjusted) of the same compound?
**A.** Its Minimum inhibitory concentration is 128.

**Q.** And the Minimum inhibitory concentration ([8]; Pseudomonas aeruginosa strain 2, Muller Hinton broth-cation adjusted)?
**A.** The Minimum inhibitory concentration was greater than 128.

**Q.** And the Minimum inhibitory concentration ([8]; Pseudomonas aeruginosa strain 3, Muller Hinton broth-cation adjusted)?
**A.** The Minimum inhibitory concentration was 128.

**Q.** What about the Minimum inhibitory concentration ([8]; Pseudomonas aeruginosa strain 4, Muller Hinton broth-cation adjusted) of the same compound?
**A.** The Minimum inhibitory concentration was greater than 128.

**Q.** And the Minimum inhibitory concentration ([8]; Pseudomonas aeruginosa strain 5, Muller Hinton broth-cation adjusted)?
**A.** Its Minimum inhibitory concentration is 128.

**Q.** And the Minimum inhibitory concentration [9]?
**A.** Its Minimum inhibitory concentration is 16.

**Q.** And the Minimum inhibitory concentration ([10]; Acinetobacter baumannii strain 1, Muller Hinton broth-cation adjusted)?
**A.** Its Minimum inhibitory concentration is 16.

**Q.** And the Minimum inhibitory concentration ([10]; Acinetobacter baumannii strain 2, Muller Hinton broth-cation adjusted)?
**A.** The Minimum inhibitory concentration was 32.

**Q.** What about the Minimum inhibitory concentration ([10]; Acinetobacter baumannii strain 3, Muller Hinton broth-cation adjusted) of the same compound?
**A.** The Minimum inhibitory concentration was 16.

**Q.** What about the Minimum inhibitory concentration ([10]; Acinetobacter baumannii strain 4, Muller Hinton broth-cation adjusted) of the same compound?
**A.** The Minimum inhibitory concentration was 16.

**Q.** And the Minimum inhibitory concentration ([10]; Acinetobacter baumannii strain 5, Muller Hinton broth-cation adjusted)?
**A.** The Minimum inhibitory concentration was 8.

**Q.** And the Minimum inhibitory concentration (C. parapsilosis; C. parapsilosis clinical yeast strain 1)?
**A.** Its Minimum inhibitory concentration is 8.

**Q.** And the Minimum inhibitory concentration (C. parapsilosis; C. parapsilosis clinical yeast strain 2)?
**A.** The Minimum inhibitory concentration was 16.

**Q.** And the Minimum inhibitory concentration (C. parapsilosis; C. parapsilosis clinical yeast strain 3)?
**A.** The Minimum inhibitory concentration was 16.

**Q.** And the Minimum inhibitory concentration (C. parapsilosis; C. parapsilosis clinical yeast strain 4)?
**A.** The Minimum inhibitory concentration was 4.

**Q.** And the Minimum inhibitory concentration (C. glabrata; C. glabrata clinical yeast strain 1)?
**A.** Its Minimum inhibitory concentration is 8.

**Q.** And the Minimum inhibitory concentration (C. glabrata; C. glabrata clinical yeast strain 2)?
**A.** The Minimum inhibitory concentration was 8.

**Q.** And the Minimum inhibitory concentration (C. glabrata; C. glabrata clinical yeast strain 3)?
**A.** The Minimum inhibitory concentration was 16.

**Q.** What about the Minimum inhibitory concentration (C. glabrata; C. glabrata clinical yeast strain 4) of the same compound?
**A.** The Minimum inhibitory concentration was 32.

**Q.** What about the Minimum inhibitory concentration (Candida albicans; Candida albicans clinical yeast strain 1) of the same compound?
**A.** The Minimum inhibitory concentration was 16.

**Q.** And the Minimum inhibitory concentration (Candida albicans; Candida albicans clinical yeast strain 2)?
**A.** The Minimum inhibitory concentration was 8.

**Q.** What about the Minimum inhibitory concentration (Candida albicans; Candida albicans clinical yeast strain 3) of the same compound?
**A.** The Minimum inhibitory concentration was 8.

**Q.** What about the Minimum inhibitory concentration (Candida albicans; Candida albicans clinical yeast strain 4) of the same compound?
**A.** The Minimum inhibitory concentration was 16.

**Q.** What about the Minimum inhibitory concentration (Candida albicans; Candida albicans clinical yeast strain 5) of the same compound?
**A.** Its Minimum inhibitory concentration is 16.
